Molecular target: MsmK (Streptococcus suis, UniProt A0A0H3N1P0)
Settings: 1 mM ATP, 10 mM MgCl2, 200 mM KCl, 50 mM PIPES/NaOH pH 6.8, 1 mM β-mercaptoethanol, 30°C, 1 h; labelled compound

Chain of MsmK (A0A0H3N1P0 entry or part of it): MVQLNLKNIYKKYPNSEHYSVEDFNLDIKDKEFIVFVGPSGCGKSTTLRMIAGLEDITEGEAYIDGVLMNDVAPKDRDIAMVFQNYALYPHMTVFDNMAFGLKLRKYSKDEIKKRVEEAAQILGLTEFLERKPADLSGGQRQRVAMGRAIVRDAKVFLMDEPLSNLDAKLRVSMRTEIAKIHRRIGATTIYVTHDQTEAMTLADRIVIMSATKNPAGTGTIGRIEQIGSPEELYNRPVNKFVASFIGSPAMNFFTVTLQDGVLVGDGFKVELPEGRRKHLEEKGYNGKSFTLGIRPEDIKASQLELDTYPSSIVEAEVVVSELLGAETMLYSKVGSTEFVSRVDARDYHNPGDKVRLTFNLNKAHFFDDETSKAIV

Nc1ncnc2c1ncn2[C@@H]1O[C@H](COP(=O)(O)OP(=O)(O)OP(=O)(O)O)[C@@H](O)[C@H]1O [ATP]
radiometric TLC of ADP formed from [α-32P]-ATP: ATPase assays showed that the recombinant protein could hydrolyze ATP to ADP
